{"source": "patent US4452778A", "about": "“Synergistic antibacterial compositions and method of treatment of infections caused by multiple antibiotic-resistant organisms” (Eli Lilly and Company, priority 1981, dated 1984)", "key": {"Proteus mirabilis": {"system": "Proteus mirabilis", "assay": "Checkerboard broth dilution synergy study (mic)", "type": "cell-based", "settings": "Table II, strain Allen"}, "[1]": {"settings": "single 1 mg/kg (i.m.), healthy volunteers; cited from earlier work"}, "Klebsiella pneumoniae": {"system": "Klebsiella pneumoniae", "assay": "Checkerboard broth dilution synergy study (mic)", "type": "cell-based", "settings": "Table II; for MIC: Klebsiella pneumoniae, read-out: mic, drug alone"}, "Proteus rettgeri": {"system": "Proteus rettgeri", "assay": "Checkerboard broth dilution synergy study (mic)", "type": "cell-based", "settings": "Table II, strain 65"}, "Pseudomonas aeruginosa": {"system": "Pseudomonas aeruginosa", "assay": "Checkerboard broth dilution synergy study (mic)", "type": "cell-based", "settings": "Table II; for MIC: Pseudomonas aeruginosa, read-out: mic, drug alone"}, "Serratia marcescens": {"system": "Serratia marcescens", "assay": "Checkerboard broth dilution synergy study (mic)", "type": "cell-based", "settings": "Table II; for MIC: Serratia marcescens, read-out: mic, drug alone"}, "Pseudomonas maltophilia": {"system": "Pseudomonas maltophilia", "assay": "Checkerboard broth dilution synergy study (mic)", "type": "cell-based", "settings": "Table II; for MIC: Stenotrophomonas maltophilia, read-out: mic, drug alone"}, "Proteus vulgaris": {"system": "Proteus vulgaris", "assay": "Checkerboard broth dilution synergy study (mic)", "type": "cell-based", "settings": "Table II; for MIC: Proteus vulgaris, read-out: mic, drug alone"}, "E. cloacae": {"system": "E. cloacae", "assay": "Checkerboard broth dilution synergy study (mic)", "type": "cell-based", "settings": "Table II; for MIC: Enterobacter cloacae, read-out: mic, drug alone"}, "Acinetobacter sp.": {"system": "Acinetobacter sp.", "assay": "Checkerboard broth dilution synergy study (mic)", "type": "cell-based", "settings": "Table II; for MIC: Acinetobacter, read-out: mic, drug alone"}, "E. coli": {"system": "E. coli", "assay": "Checkerboard broth dilution synergy study (mic)", "type": "cell-based", "settings": "Table II; for MIC: Escherichia coli, read-out: mic, drug alone"}}, "note": "Like-named read-outs stand apart in the source and are kept apart here."}
{"molecule": "NC[C@H]1O[C@H](O[C@H]2[C@H](O)[C@@H](O[C@H]3O[C@H](CO)[C@@H](O)[C@H](N)[C@H]3O)[C@H](N)C[C@@H]2N)[C@H](N)C[C@@H]1O", "note": "[tobramycin]", "values": [{"measurement": "MIC", "setting": "Proteus mirabilis; Proteus mirabilis, read-out: mic, drug alone", "value": 32, "unit": "µg/mL"}, {"measurement": "mic of each drug in combination I + T", "setting": "Proteus mirabilis", "value": 1, "unit": "µg/mL"}, {"measurement": "peak serum concentrations", "setting": "[1]", "value": 4.4, "unit": "µg/mL"}, {"measurement": "MIC", "setting": "Klebsiella pneumoniae; strain 130", "value": 16, "unit": "µg/mL"}, {"measurement": "MIC", "setting": "Klebsiella pneumoniae; strain 214-1", "value": 32, "unit": "µg/mL"}, {"measurement": "MIC", "setting": "Klebsiella pneumoniae; strain 463", "value": 16, "unit": "µg/mL"}, {"measurement": "MIC", "setting": "Klebsiella pneumoniae; strain 512", "value": "> 64", "unit": "µg/mL"}, {"measurement": "MIC", "setting": "Klebsiella pneumoniae; strain 933", "value": 32, "unit": "µg/mL"}, {"measurement": "MIC", "setting": "Klebsiella pneumoniae; strain 1204-2", "value": "> 64", "unit": "µg/mL"}, {"measurement": "mic of each drug in combination I + T", "setting": "Klebsiella pneumoniae; strain 130", "value": 0.5, "unit": "µg/mL"}, {"measurement": "mic of each drug in combination I + T", "setting": "Klebsiella pneumoniae; strain 214-1", "value": 0.03, "unit": "µg/mL"}, {"measurement": "mic of each drug in combination I + T", "setting": "Klebsiella pneumoniae; strain 463", "value": "< 0.015", "unit": "µg/mL"}, {"measurement": "mic of each drug in combination I + T", "setting": "Klebsiella pneumoniae; strain 512", "value": 0.06, "unit": "µg/mL"}, {"measurement": "mic of each drug in combination I + T", "setting": "Klebsiella pneumoniae; strain 933", "value": 0.5, "unit": "µg/mL"}, {"measurement": "mic of each drug in combination I + T", "setting": "Klebsiella pneumoniae; strain 1204-2", "value": 0.03, "unit": "µg/mL"}, {"measurement": "MIC", "setting": "Proteus rettgeri; Providencia rettgeri, read-out: mic, drug alone", "value": 64, "unit": "µg/mL"}, {"measurement": "mic of each drug in combination I + T", "setting": "Proteus rettgeri", "value": 1, "unit": "µg/mL"}, {"measurement": "MIC", "setting": "Pseudomonas aeruginosa; strain 84", "value": 8, "unit": "µg/mL"}, {"measurement": "MIC", "setting": "Pseudomonas aeruginosa; strain 366", "value": 4, "unit": "µg/mL"}, {"measurement": "MIC", "setting": "Pseudomonas aeruginosa; strain 424", "value": 64, "unit": "µg/mL"}, {"measurement": "MIC", "setting": "Pseudomonas aeruginosa; strain 447", "value": 64, "unit": "µg/mL"}, {"measurement": "MIC", "setting": "Pseudomonas aeruginosa; strain 1484", "value": 64, "unit": "µg/mL"}, {"measurement": "MIC", "setting": "Pseudomonas aeruginosa; strain Davis", "value": "> 64", "unit": "µg/mL"}, {"measurement": "mic of each drug in combination I + T", "setting": "Pseudomonas aeruginosa; strain 84", "value": 1, "unit": "µg/mL"}, {"measurement": "mic of each drug in combination I + T", "setting": "Pseudomonas aeruginosa; strain 366", "value": 2, "unit": "µg/mL"}, {"measurement": "mic of each drug in combination I + T", "setting": "Pseudomonas aeruginosa; strain 424", "value": 0.5, "unit": "µg/mL"}, {"measurement": "mic of each drug in combination I + T", "setting": "Pseudomonas aeruginosa; strain 447", "value": "< 0.5", "unit": "µg/mL"}, {"measurement": "mic of each drug in combination I + T", "setting": "Pseudomonas aeruginosa; strain 1484", "value": 2, "unit": "µg/mL"}, {"measurement": "mic of each drug in combination I + T", "setting": "Pseudomonas aeruginosa; strain Davis", "value": 1, "unit": "µg/mL"}, {"measurement": "MIC", "setting": "Serratia marcescens; strain 100", "value": 16, "unit": "µg/mL"}, {"measurement": "MIC", "setting": "Serratia marcescens; strain 302-2", "value": 16, "unit": "µg/mL"}, {"measurement": "MIC", "setting": "Serratia marcescens; strain 796", "value": 64, "unit": "µg/mL"}, {"measurement": "MIC", "setting": "Serratia marcescens; strain 14142", "value": "> 64", "unit": "µg/mL"}, {"measurement": "MIC", "setting": "Serratia marcescens; strain Townsend", "value": 32, "unit": "µg/mL"}, {"measurement": "mic of each drug in combination I + T", "setting": "Serratia marcescens; strain 100", "value": 8, "unit": "µg/mL"}, {"measurement": "mic of each drug in combination I + T", "setting": "Serratia marcescens; strain 302-2", "value": 1, "unit": "µg/mL"}, {"measurement": "mic of each drug in combination I + T", "setting": "Serratia marcescens; strain 796", "value": 16, "unit": "µg/mL"}, {"measurement": "mic of each drug in combination I + T", "setting": "Serratia marcescens; strain 14142", "value": 4, "unit": "µg/mL"}, {"measurement": "mic of each drug in combination I + T", "setting": "Serratia marcescens; strain Townsend", "value": 0.5, "unit": "µg/mL"}, {"measurement": "MIC", "setting": "Pseudomonas maltophilia; strain 10", "value": 64, "unit": "µg/mL"}, {"measurement": "MIC", "setting": "Pseudomonas maltophilia; strain 11", "value": 4, "unit": "µg/mL"}, {"measurement": "MIC", "setting": "Pseudomonas maltophilia; strain 505", "value": 32, "unit": "µg/mL"}, {"measurement": "mic of each drug in combination I + T", "setting": "Pseudomonas maltophilia; strain 10", "value": 8, "unit": "µg/mL"}, {"measurement": "mic of each drug in combination I + T", "setting": "Pseudomonas maltophilia; strain 11", "value": 2, "unit": "µg/mL"}, {"measurement": "mic of each drug in combination I + T", "setting": "Pseudomonas maltophilia; strain 505", "value": 0.5, "unit": "µg/mL"}, {"measurement": "MIC", "setting": "Proteus vulgaris; strain 363", "value": 64, "unit": "µg/mL"}, {"measurement": "MIC", "setting": "Proteus vulgaris; strain Shide", "value": 32, "unit": "µg/mL"}, {"measurement": "mic of each drug in combination I + T", "setting": "Proteus vulgaris; strain 363", "value": 1, "unit": "µg/mL"}, {"measurement": "mic of each drug in combination I + T", "setting": "Proteus vulgaris; strain Shide", "value": 1, "unit": "µg/mL"}, {"measurement": "MIC", "setting": "E. cloacae; strain 1246", "value": 16, "unit": "µg/mL"}, {"measurement": "MIC", "setting": "E. cloacae; strain 1253", "value": 32, "unit": "µg/mL"}, {"measurement": "MIC", "setting": "E. cloacae; strain 1415", "value": 32, "unit": "µg/mL"}, {"measurement": "MIC", "setting": "E. cloacae; strain B293", "value": "> 64", "unit": "µg/mL"}, {"measurement": "mic of each drug in combination I + T", "setting": "E. cloacae; strain 1246", "value": 0.5, "unit": "µg/mL"}, {"measurement": "mic of each drug in combination I + T", "setting": "E. cloacae; strain 1253", "value": 2, "unit": "µg/mL"}, {"measurement": "mic of each drug in combination I + T", "setting": "E. cloacae; strain 1415", "value": "< 0.015", "unit": "µg/mL"}, {"measurement": "mic of each drug in combination I + T", "setting": "E. cloacae; strain B293", "value": 8, "unit": "µg/mL"}, {"measurement": "MIC", "setting": "Acinetobacter sp.; strain 28-1", "value": 0.5, "unit": "µg/mL"}, {"measurement": "MIC", "setting": "Acinetobacter sp.; strain 28-2", "value": 4, "unit": "µg/mL"}, {"measurement": "MIC", "setting": "Acinetobacter sp.; strain 106", "value": 1, "unit": "µg/mL"}, {"measurement": "MIC", "setting": "Acinetobacter sp.; strain 107", "value": 4, "unit": "µg/mL"}, {"measurement": "MIC", "setting": "Acinetobacter sp.; strain 109", "value": 1, "unit": "µg/mL"}, {"measurement": "mic of each drug in combination I + T", "setting": "Acinetobacter sp.; strain 28-1", "value": 0.5, "unit": "µg/mL"}, {"measurement": "mic of each drug in combination I + T", "setting": "Acinetobacter sp.; strain 28-2", "value": 0.5, "unit": "µg/mL"}, {"measurement": "mic of each drug in combination I + T", "setting": "Acinetobacter sp.; strain 106", "value": 0.5, "unit": "µg/mL"}, {"measurement": "mic of each drug in combination I + T", "setting": "Acinetobacter sp.; strain 107", "value": 0.5, "unit": "µg/mL"}, {"measurement": "mic of each drug in combination I + T", "setting": "Acinetobacter sp.; strain 109", "value": 0.5, "unit": "µg/mL"}, {"measurement": "MIC", "setting": "E. coli; strain 46-2", "value": "> 64", "unit": "µg/mL"}, {"measurement": "MIC", "setting": "E. coli; strain 77-3", "value": 64, "unit": "µg/mL"}, {"measurement": "MIC", "setting": "E. coli; strain 136-3", "value": 64, "unit": "µg/mL"}, {"measurement": "MIC", "setting": "E. coli; strain 1260", "value": "> 64", "unit": "µg/mL"}, {"measurement": "MIC", "setting": "E. coli; strain 1262", "value": 16, "unit": "µg/mL"}, {"measurement": "MIC", "setting": "E. coli; strain Briley", "value": 4, "unit": "µg/mL"}, {"measurement": "MIC", "setting": "E. coli; strain Dill", "value": "> 64", "unit": "µg/mL"}, {"measurement": "mic of each drug in combination I + T", "setting": "E. coli; strain 46-2", "value": 4, "unit": "µg/mL"}, {"measurement": "mic of each drug in combination I + T", "setting": "E. coli; strain 77-3", "value": 0.25, "unit": "µg/mL"}, {"measurement": "mic of each drug in combination I + T", "setting": "E. coli; strain 136-3", "value": 4, "unit": "µg/mL"}, {"measurement": "mic of each drug in combination I + T", "setting": "E. coli; strain 1253", "value": 4, "unit": "µg/mL"}, {"measurement": "mic of each drug in combination I + T", "setting": "E. coli; strain 1260", "value": 0.5, "unit": "µg/mL"}, {"measurement": "mic of each drug in combination I + T", "setting": "E. coli; strain 1262", "value": 8, "unit": "µg/mL"}, {"measurement": "mic of each drug in combination I + T", "setting": "E. coli; strain 1415", "value": 8, "unit": "µg/mL"}, {"measurement": "mic of each drug in combination I + T", "setting": "E. coli; strain Briley", "value": 8, "unit": "µg/mL"}, {"measurement": "mic of each drug in combination I + T", "setting": "E. coli; strain Dill", "value": 4, "unit": "µg/mL"}]}
